Reference: article PMC7504818, “Synthetic Analogues of Aminoadamantane as Influenza Viral Inhibitors—In Vitro, In Silico and QSAR Studies” (Molecules, 2020)
Like-named read-outs stand apart in the source and are kept apart here.

Tests used:
in vitro [1] = details: dog
MDCK cells = details: for HNTC (μM) MDCK Cells: high-nontoxic concentration; for CC50: read-out: CC50 (μM) MDCK Cells, 50% cytotoxic concentration, confluent MDCK monolayers, 72 h
[2] = tested on: influenza virus A/H3N2, strain Hong Kong 68; test: Antiviral activity against influenza virus A/H3N2, strain Hong Kong 68 (crystal violet uptake assay in MDCK cells); format: cell-based; details: for Active: experimental class, active if IC50 < 30 μM
Procedure: The synthesized compounds were tested for antiviral activity against the influenza virus A/H3N2, strain Hong Kong 68.
In order to identify new potential antiviral drugs, small amounts of extracts or compounds have to be examined for cytotoxicity and antiviral activity in primary screening using a rapid, easy, inexpensive and highly standardized test system. The cytotoxic and the antiviral effects were quantified using a crystal violet uptake assay allowing automated handling of large numbers of candidate agents. […] Madin-Darby Kanine Kidney Cells (MDCK) cells were seeded at 2 × 10^4 cells per well in 96-well flat-bottomed microtiter plates (Falcon 3075). The cytotoxicity of the test compounds was determined on 2-day-old confluent MDCK cell monolayers grown in the internal 60 wells (5% CO2, 37 °C). After removal of the growth medium, two-fold dilutions of the compounds in 100 µL test medium were added and incubated at 37 °C in a 5% CO2 atmosphere for 72 h. Cells in six wells without compound treatment served as basic controls. The Dynex Immuno Assay System (DIAS, Guernsey, UK) developed for automated ELISA techniques was applied to wash gently, stain, measure and analyze the viability of the cell monolayers in cytotoxic, as well as antiviral assays. The staining procedure undertaken with crystal violet was based on the principles described by Nain et al. for the determination of the cytotoxic activity of TNF-α [20]. At first, the supernatant was aspirated and the cell monolayers were washed three times with […] physiological sodium chloride solution to remove dead cells. Secondly, the cells were fixed and stained in one step with 50 µL of 0.03% crystal violet (w/v) in 20% methanol for 10 min. […] Then the optical density of individual wells was quantified spectrophotometrically at 540/630 nm and analyzed with the DIAS. Cell viability was evaluated as the percentage of the mean value of optical density, resulting from the six cell controls, which was set 100%. The 50% cytotoxic concentrations (CC50) were calculated from the mean dose–response curves of three assays each with two parallels.
To exclude non-specific antiviral activities of test compounds, their cytotoxic effects have to be determined not only on confluent cell monolayers but also on proliferating cell cultures in the primary antiviral screening. The cytotoxicity and the growth inhibition of compounds were quantified using an automated crystal violet staining procedure and the electronic cell analyzer system CASY 1, respectively, on day 3 after compound application. The 50% cytotoxic and growth inhibition concentrations were calculated from the mean dose–response curve (3.9 through 1000 µg mL^−1; dilution factor 2) of three separate experiments each with two parallels in the indicated cell lines.

in vitro [3] = format: in vitro ADME; details: human, plasma
Procedure: The separation of glycyl-rimantadine (4b) and Ala-rimantadine (4a) (internal standard, IS) was performed on an ultra-high-performance liquid chromatography (UHPLC) system (Bruker Daltonics, Germany), utilizing an RP Kinetex C18 column 100 mm × 2.1 mm, 2.6 μm, with a proguard column 2.1 mm (Phenomenex, USA). The mobile phase was composed of formic acid 0.1% in water (A) and acetonitrile (B). Gradient elution was chosen for the analysis, at a constant flow rate of 0.25 mL min^−1 and the following gradient profile: initial phase (B) concentration of 5% until 0.3 min, then increased to 80% within 1.2 min, kept constant for 1 min at 80% and then reduced to 5% at 2.6 min, until the end of the run at 4 min. The temperature in the autosampler and the column oven was maintained at 15 °C and 40 °C, respectively. The sample injection volume was set to 5 μL.
The EVOQ Elite ER (Bruker Daltonics, Germany) triple quadrupole mass spectrometer was operated in positive ionization electrospray mode (ESI) in multiple reaction monitoring (MRM) for the detection of glycyl-rimantadine (4b) and IS. The optimal MRM transitions for monitoring the analytes were determined and set as follows: m/z 237.1 → 163.2, 237.1 → 75.5 and 237.1 → 81.4 for glycyl-rimantadine and 251.1 → 163.2, 251.1 → 89.4 and 251.1 → 180.2 for the IS. The optimum ESI parameters were determined and set as follows: spray voltage at 4500 V; heated probe gas flow at 50 units; heated probe temperature at 150 °C; cone gas flow at 20 units; cone temperature at 300 °C and nebulizer gas flow at 50 units. The control of the LC and the MS, as well as the data acquisition, was performed using the MSWS software, version 8.2.1 (Bruker Datonics, Germany). […]
The in vitro plasma stability of glycyl-rimantadine (4b) was conducted by LC–MS/MS. […] The glycyl-rimantadine (4b) concentration was calculated via the standard calibration curve that was designed by plotting the area of the conjugate versus the IS area against the nominal concentration of the calibration standards. […]

[4] = parameters: method as in doi:10.1177/095632029200300305, PMID 9706043, PMID 19116869; details: orally introduced; cited from earlier work
[5] = influenza A/H3N2 Hong Kong/68, read-out: IC50 (μM) Against A/Hong Kong/68
[6] = Influenza A virus, H3N2, MDCK, read-out: IC50 (μM) Against A/Hong Kong/68
[7] = MDCK, Table 4, against A/Hong Kong/68, QSAR numbering, read-out: IC50
[8] = Table 4, against A/Hong Kong/68, QSAR numbering, read-out: IC50

CC(C)C(N)C(=O)NC(C)C12CC3CC(CC(C3)C1)C2 (centres unmarked) [Compound 4h, Val-Rim]
CC50 (in vitro [1]): 70.3 µM | HNTC (μM) MDCK Cells (MDCK cells): 10.2 µM

CC(NC(=O)CCNC(=N)N)C12CC3CC(CC(C3)C1)C2 (stereo not drawn) [Compound 6i, Gua-β-Ala-Rim]
HNTC (μM) MDCK Cells (MDCK cells): >100 µM | CC50 (MDCK cells): > 100 µM

CCC(C)C(N)C(=O)NC(C)C12CC3CC(CC(C3)C1)C2 (centres unmarked) [Compound 4c, Ile-Rim]
CC50 (in vitro [1]): 58.4 µM | HNTC (μM) MDCK Cells (MDCK cells): 5.33 µM

CC(NC(=O)[C@H](C)NC(=N)N)C12CC3CC(CC(C3)C1)C2 (stereo partly drawn) [Compound 6a, Gua-Ala-Rim]
IC50 [2, 5]: 41.9 µM | HNTC (μM) MDCK Cells (MDCK cells): >100 µM | CC50 (MDCK cells): > 100 µM

NC12CC3CC(CC(C3)C1)C2 [Amantadine, reference compound]
IC50 [2, 6]: 0.39 µM | IC50 [2, 7]: 0.39 µM | Active [2]: Yes (Active compound only if IC50 < 30 μM) | CC50 (in vitro [1]): > 100 µM

CCOC(=O)C1=C[C@@H](OC(CC)CC)[C@H](NC(C)=O)[C@@H](N)C1 [Oseltamivir, reference compound]
IC50 [2, 6]: 0.002 µM | CC50 (in vitro [1]): > 100 µM | HNTC (μM) MDCK Cells (MDCK cells): >100 µM

CC(N)C(=O)NC(C)C12CC3CC(CC(C3)C1)C2 (centres unmarked) [Compound 4a, Ala-Rimantadine]
IC50 [2, 6]: 1.53 µM | CC50 (in vitro [1]): > 100 µM | HNTC (μM) MDCK Cells (MDCK cells): 14.65 µM

CC(C)[C@H](NC(=N)N)C(=O)NC12CC3CC(CC(C3)C1)C2 [Compound 7h, Gua-Val-Am]
IC50 [2, 8]: 17.1 µM | Active [2]: Yes (Active compound only if IC50 < 30 μM) | IC50 [2, 5]: 17.1 µM | HNTC (μM) MDCK Cells (MDCK cells): >100 µM | CC50 (MDCK cells): > 100 µM

CC(NC(=O)C(N)Cc1ccc(F)cc1)C12CC3CC(CC(C3)C1)C2 (centres unmarked) [Compound 4g, (4-F)-Phe-Rim]
CC50 (in vitro [1]): 15.5 µM | HNTC (μM) MDCK Cells (MDCK cells): 4.37 µM

CC(N)C(=O)NC12CC3CC(CC(C3)C1)C2 (centres unmarked) [Compound 5a, Ala-Amantadine]
IC50 [2, 6]: 1.41 µM | IC50 [2, 7]: 1.41 µM | Active [2]: Yes (Active compound only if IC50 < 30 μM) | CC50 (in vitro [1]): > 100 µM | HNTC (μM) MDCK Cells (MDCK cells): >100 µM

CC(C)CC(N)C(=O)NC(C)C12CC3CC(CC(C3)C1)C2 (centres unmarked) [Compound 4d, Leu-Rim]
IC50 [2, 6]: 0.75 µM | CC50 (in vitro [1]): > 100 µM | HNTC (μM) MDCK Cells (MDCK cells): 11.66 µM

CC(NC(=O)C(N)Cc1ccccc1)C12CC3CC(CC(C3)C1)C2 (centres unmarked) [Compound 4e, Phe-Rim]
CC50 (in vitro [1]): 21.9 µM | HNTC (μM) MDCK Cells (MDCK cells): 4.75 µM

C[C@H](NC(=N)N)C(=O)NC12CC3CC(CC(C3)C1)C2 [Compound 7a, Gua-Ala-Am]
IC50 [2, 8]: 18.4 µM | Active [2]: Yes (Active compound only if IC50 < 30 μM) | IC50 [2, 5]: 18.4 µM | HNTC (μM) MDCK Cells (MDCK cells): >100 µM | CC50 (MDCK cells): > 100 µM

CC(NC(=O)[C@H](Cc1ccc(O)cc1)NC(=N)N)C12CC3CC(CC(C3)C1)C2 (stereo partly drawn) [Compound 6j, Gua-Tyr-Rim]
IC50 [2, 5]: 8.19 µM | HNTC (μM) MDCK Cells (MDCK cells): 36.69 µM | CC50 (MDCK cells): > 100 µM

CC(NC(=O)CCN)C12CC3CC(CC(C3)C1)C2 (stereo not drawn) [Compound 4i, β-Ala-Rimantadine]
IC50 [2, 6]: 15.7 µM | CC50 (in vitro [1]): > 100 µM | HNTC (μM) MDCK Cells (MDCK cells): 20.78 µM

CC(NC(=O)[C@H](N)Cc1ccc(F)cc1)C12CC3CC(CC(C3)C1)C2 (stereo partly drawn) [Compound 4f, (4-F)-D-Phe-Rim]
CC50 (in vitro [1]): 19.9 µM | HNTC (μM) MDCK Cells (MDCK cells): 6.23 µM

CC(NC(=O)CN)C12CC3CC(CC(C3)C1)C2 (centres unmarked) [Compound 4b, glycyl-rimantadine]
IC50 [2, 6]: 0.11 µM | CC50 (in vitro [1]): > 100 µM | remaining at 6 h, 1.58 µg/mL (in vitro [3]): 97.5% | remaining at 12 h, 1.58 µg/mL (in vitro [3]): ~91% | remaining at 24 h, 1.58 µg/mL (in vitro [3]): 83.7% | HNTC (μM) MDCK Cells (MDCK cells): 13.89 µM

CC(NC(=O)C(N)Cc1ccc(O)cc1)C12CC3CC(CC(C3)C1)C2 (centres unmarked) [Compound 4j, Tyr-Rimantadine]
IC50 [2, 6]: 0.52 µM | CC50 (in vitro [1]): > 100 µM | HNTC (μM) MDCK Cells (MDCK cells): 9.97 µM

CC(C)[C@H](N)C(=O)OCCOCn1cnc2c(=O)[nH]c(N)nc21 [Valacyclovir]
bioavailability, times higher than acyclovir [4]: 3–4 times

NC(Cc1ccc(F)cc1)C(=O)NC12CC3CC(CC(C3)C1)C2 (centres unmarked) [Compound 5g, (4-F)-phenylalanyl-amantadine]
IC50 [2, 6]: 0.81 µM | IC50 [2, 7]: 0.81 µM | Active [2]: Yes (Active compound only if IC50 < 30 μM) | CC50 (in vitro [1]): 83.6 µM | HNTC (μM) MDCK Cells (MDCK cells): 15.35 µM

NC(Cc1ccccc1)C(=O)NC12CC3CC(CC(C3)C1)C2 (centres unmarked) [Compound 5e, phenylalanyl-amantadine]
IC50 [2, 6]: 0.75 µM | IC50 [2, 7]: 0.75 µM | Active [2]: Yes (Active compound only if IC50 < 30 μM) | CC50 (in vitro [1]): 89.4 µM | HNTC (μM) MDCK Cells (MDCK cells): 15.1 µM

CC(C)C(N)C(=O)NC12CC3CC(CC(C3)C1)C2 (centres unmarked) [Compound 5h, Val-Amantadine]
IC50 [2, 6]: 1.32 µM | IC50 [2, 7]: 1.32 µM | Active [2]: Yes (Active compound only if IC50 < 30 μM) | CC50 (in vitro [1]): > 100 µM | HNTC (μM) MDCK Cells (MDCK cells): >100 µM
